Key:
Type in all cases: in vivo, rat
male Sprague-Dawley rats [1] = test: Rotarod motor coordination; conditions: 10 mg/kg i.p., 30 minutes before test; vehicle 193.6 ± 14.9
male Sprague-Dawley rats [2] = test: Complete Freund's Adjuvant; conditions: 48 hours after CFA injection (24 hours post-treatment)
male Sprague-Dawley rats [3] = test: Brennan model of incisional pain
male Sprague-Dawley rats [4] = test: Gastrointestinal transit of a charcoal meal; conditions: 30 mg/kg; vehicle 0.62 ± 0.02

Structure (SMILES): CN1C(=O)CN=C(c2ccccc2)c2cc(Cl)ccc21 [Diazepam, diazepam]
- time spent on the rotarod (male Sprague-Dawley rats [1]): 60.1 ± 23.7 s

Structure (SMILES): O=C(O)Cc1ccccc1Nc1c(Cl)cccc1Cl [Diclofenac, diclofenac]
- effect on edema (male Sprague-Dawley rats [2]): decreased edema

Structure (SMILES): CN1CC[C@]23c4c5ccc(O)c4O[C@H]2[C@@H](O)C=C[C@H]3[C@H]1C5 [morphine]
- effect of daily administration on anti-hyperalgesic effect (tolerance) (male Sprague-Dawley rats [3]; 5 mg/kg s.c. once a day for 7 consecutive days): blunted its effects on hyperalgesia
- duration of anti-hyperalgesic effect (male Sprague-Dawley rats [3]; after single s.c. administration): < 6 h
- relative distance traveled (gastrointestinal transit) (male Sprague-Dawley rats [4]): 0.22 ± 0.02

— publication PMC9371589 (Behavioural pharmacology, 2022)
